Data reported in patent publication US20150030706A1, “USE OF ESSENTIAL OILS, SUPERCRITICAL EXTRACTS AND AQUEOUS RESIDUES GENERATED DURING A PROCESS FOR OBTAINING ORGANIC EXTRACTS FROM THE ARTEMISIA ABSINTHIUM L. PLANT” (CONSEJO SUPERIOR DE INVESTIGACIONES CIENTIFICAS (CSIC), priority 2012, published 2015).

Test system: Meloidogyne javanica
Assay: Nematicide activity against infective juveniles (J2)
Type: in vivo
Procedure: The assays were carried out according to the methodology described for Meloidogyne sp (Hernández-Carlos et al. 2011, Sosa et al. 2012) using the biological stage of infected juvenile (J2) Meloidogyne javanica in the assays. The activity of each product was quantified at different concentrations, shown in Table 5 and in at least four copies, each bio-assay was repeated at least three times and the nematostatic/nematicide activity was determined from the percentage of infected juvenile plants immobilised/which died.

C=C/C(C)=C\CC(O)C(C)(C)O (stereo not shown) [(Z)-2,6-dimethylocta-5,7-diene-2,3-diol]
M. javanica % J2 immobilised Average (Concentration 0.02 μg/μl): 4.2%
M. javanica % J2 immobilised Average (Concentration 0.1 μg/μl): 19.7%
M. javanica % J2 immobilised Average (Concentration 0.25 μg/μl): 43.9%
M. javanica % J2 immobilised Average (Concentration 0.5 μg/μl): 100%
